Assay results: patent publication US20260297081A1, “COMPOUNDS AND METHODS OF TREATING CANCERS” (Cullgen Inc., priority 2023, published 2026)

Columns and labels:
MCF7 cells = test: Anti-proliferation (viability) of MCF7 cells (Table 7, FIG. 2B); assay type: cell-based; conditions: Homo sapiens, MCF7, MCF7 cells, 3-6 days, 10-point serial dilution; read-out: GI IC50 in MCF-7
CDK4 = CDK4 (Homo sapiens, UniProt P11802+Q16531); test: CDK4 percentage degradation in Calu-1 cells (Table 6); assay type: cell-based; parameters: Cells that express cyclin D1-3 and CDK4/6 proteins were treated with heterobifunctional compounds; endogenous in cells; host or cells: Calu-1; conditions: 16 hours; for inhibition at 0.04 µM: 40 nM; for inhibition at 0.2 µM: 200 nM
CDK4, sequence (P11802 2-303 limits assumed): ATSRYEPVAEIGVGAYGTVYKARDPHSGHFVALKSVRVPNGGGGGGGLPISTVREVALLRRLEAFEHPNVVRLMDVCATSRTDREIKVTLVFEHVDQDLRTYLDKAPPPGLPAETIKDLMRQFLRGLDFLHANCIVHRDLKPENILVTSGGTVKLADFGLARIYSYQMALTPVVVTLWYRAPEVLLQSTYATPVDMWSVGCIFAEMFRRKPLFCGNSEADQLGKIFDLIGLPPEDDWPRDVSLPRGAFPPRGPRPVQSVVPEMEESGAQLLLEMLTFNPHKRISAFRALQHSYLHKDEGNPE
CDK4, sequence (P24385 whole entry partner): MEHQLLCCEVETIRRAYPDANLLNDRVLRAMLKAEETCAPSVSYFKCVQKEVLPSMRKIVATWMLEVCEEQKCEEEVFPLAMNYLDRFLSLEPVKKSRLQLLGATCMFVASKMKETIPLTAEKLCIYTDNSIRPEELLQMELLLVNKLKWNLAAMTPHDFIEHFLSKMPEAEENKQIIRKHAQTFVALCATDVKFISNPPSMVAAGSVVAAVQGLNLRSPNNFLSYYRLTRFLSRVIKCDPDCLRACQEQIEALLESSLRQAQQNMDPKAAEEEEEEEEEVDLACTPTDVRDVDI
CDK4, sequence (Q16531 2-1140 limits assumed): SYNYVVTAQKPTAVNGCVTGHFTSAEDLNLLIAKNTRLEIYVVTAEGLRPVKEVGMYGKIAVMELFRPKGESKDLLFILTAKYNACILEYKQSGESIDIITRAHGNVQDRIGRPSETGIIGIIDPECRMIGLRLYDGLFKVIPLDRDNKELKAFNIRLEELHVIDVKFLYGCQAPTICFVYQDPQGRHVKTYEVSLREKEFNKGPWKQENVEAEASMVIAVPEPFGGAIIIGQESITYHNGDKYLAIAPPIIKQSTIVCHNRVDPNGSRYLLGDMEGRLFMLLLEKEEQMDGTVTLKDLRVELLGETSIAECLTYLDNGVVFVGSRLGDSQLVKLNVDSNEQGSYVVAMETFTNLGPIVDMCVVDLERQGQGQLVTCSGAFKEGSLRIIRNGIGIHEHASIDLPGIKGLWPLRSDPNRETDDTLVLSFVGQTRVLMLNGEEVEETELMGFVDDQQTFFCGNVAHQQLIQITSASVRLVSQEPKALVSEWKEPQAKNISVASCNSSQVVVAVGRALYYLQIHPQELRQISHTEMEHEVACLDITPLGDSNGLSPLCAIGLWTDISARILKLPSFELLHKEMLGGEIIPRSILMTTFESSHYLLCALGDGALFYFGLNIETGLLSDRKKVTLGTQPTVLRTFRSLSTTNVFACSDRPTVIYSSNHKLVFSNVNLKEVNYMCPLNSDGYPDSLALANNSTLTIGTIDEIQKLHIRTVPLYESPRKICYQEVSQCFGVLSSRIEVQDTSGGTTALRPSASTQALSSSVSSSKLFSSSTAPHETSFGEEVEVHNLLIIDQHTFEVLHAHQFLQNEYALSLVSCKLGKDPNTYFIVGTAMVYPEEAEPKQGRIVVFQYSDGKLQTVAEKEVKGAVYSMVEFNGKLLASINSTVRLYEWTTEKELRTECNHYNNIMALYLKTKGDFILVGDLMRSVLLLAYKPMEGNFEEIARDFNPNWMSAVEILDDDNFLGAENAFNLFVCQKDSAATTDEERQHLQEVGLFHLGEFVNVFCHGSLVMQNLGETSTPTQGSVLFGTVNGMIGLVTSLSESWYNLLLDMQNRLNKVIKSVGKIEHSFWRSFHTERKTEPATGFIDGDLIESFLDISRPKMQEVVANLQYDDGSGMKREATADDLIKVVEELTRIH
Outline: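 Calu-1 cells exposed to heterobifunctional compounds at 40 nM or 200 nM for 16 h. Cyclin D1 and CDK4 levels measured by Western blot of RIPA lysates (BCA-normalised loading), bands quantified by densitometry and expressed as percentage degradation.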

IC50 (MCF7 cells)	inhibition at 0.04 µM (CDK4)	inhibition at 0.2 µM (CDK4)	SMILES
< 50 nM	30 to 50%	30 to 50%	CC(=O)c1c(C)c2cnc(Nc3ccc(N4CCN(CC(=O)NCC5CC(Nc6nc(NC(C)C)ccc6C(=O)Nc6ccc(N(C)C)nn6)C5)CC4)cn3)nc2n(C2CCCC2)c1=O (stereo not drawn) [CPD-316, 2-((3-((2-(4-(6-((6-acetyl-8-cyclopentyl-5-methyl-7-oxo-7,8-dihydropyrido[2,3-d]pyrimidin-2-yl)amino)pyridin-3-yl)piperazin-1-yl)acetamido)methyl)cyclobutyl)amino)-N-(6-(dimethylamino)pyridazin-3-yl)-6-(isopropylamino)nicotinamide]
< 50 nM	< 30%	< 30%	CC(=O)c1c(C)c2cnc(Nc3ccc(N4CCN(CC5(C(=O)N6CC7(CC(Nc8nc(NC(C)C)ccc8C(=O)Nc8cn(C)c(C9CC9)n8)C7)C6)CC5)CC4)cn3)nc2n(C2CCCC2)c1=O [CPD-322, 2-((2-(1-((4-(6-((6-acetyl-8-cyclopentyl-5-methyl-7-oxo-7,8-dihydropyrido[2,3-d]pyrimidin-2-yl)amino)pyridin-3-yl)piperazin-1-yl)methyl)cyclopropane-1-carbonyl)-2-azaspiro[3.3]heptan-6-yl)amino)-N-(2-cyclopropyl-1-methyl-1H-imidazol-4-yl)-6-(isopropylamino)nicotinamide]
< 50 nM	< 30%	< 30%	CC(=O)c1c(C)c2cnc(Nc3ccc(N4CCN(CCC(=O)N5CC6(CC(Nc7nc(NC(C)C)ccc7C(=O)Nc7cn(C)c(C8CC8)n7)C6)C5)CC4)cn3)nc2n(C2CCCC2)c1=O [CPD-323, 2-((2-(3-(4-(6-((6-acetyl-8-cyclopentyl-5-methyl-7-oxo-7,8-dihydropyrido[2,3-d]pyrimidin-2-yl)amino)pyridin-3-yl)piperazin-1-yl)propanoyl)-2-azaspiro[3.3]heptan-6-yl)amino)-N-(2-cyclopropyl-1-methyl-1H-imidazol-4-yl)-6-(isopropylamino)nicotinamide]
< 50 nM	< 30%	< 30%	CNc1ccc(C(=O)Nc2ccc(N(C)C)nn2)c(NC2CC3(C2)CN(C(=O)C2CC24CCN(c2ccc(Nc5ncc6c(C)c(C(C)=O)c(=O)n(C7CCCC7)c6n5)nc2)CC4)C3)n1 (stereo not drawn) [CPD-324, 2-((2-(6-(6-((6-acetyl-8-cyclopentyl-5-methyl-7-oxo-7,8-dihydropyrido[2,3-d]pyrimidin-2-yl)amino)pyridin-3-yl)-6-azaspiro[2.5]octane-1-carbonyl)-2-azaspiro[3.3]heptan-6-yl)amino)-N-(6-(dimethylamino)pyridazin-3-yl)-6-(methylamino)nicotinamide]
50 to 100 nM	< 30%	< 30%	CC(=O)c1c(C)c2cnc(Nc3ccc(N4CCN(C(C)C(=O)NC5CC(Nc6nc(NC(C)C)ccc6C(=O)Nc6ccc(N(C)C)nn6)C5)CC4)cn3)nc2n(C2CCCC2)c1=O (stereo not drawn) [CPD-326, 2-((3-(2-(4-(6-((6-acetyl-8-cyclopentyl-5-methyl-7-oxo-7,8-dihydropyrido[2,3-d]pyrimidin-2-yl)amino)pyridin-3-yl)piperazin-1-yl)propanamido)cyclobutyl)amino)-N-(6-(dimethylamino)pyridazin-3-yl)-6-(isopropylamino)nicotinamide]
< 50 nM	< 30%	< 30%	CNc1ccc(C(=O)Nc2ccc(N(C)C)nn2)c(NC2CCN(C(=O)C3CC34CCN(c3ccc(Nc5ncc6c(C)c(C(C)=O)c(=O)n(C7CCCC7)c6n5)nc3)CC4)CC2)n1 (stereo not drawn) [CPD-328, 2-((1-(6-(6-((6-acetyl-8-cyclopentyl-5-methyl-7-oxo-7,8-dihydropyrido[2,3-d]pyrimidin-2-yl)amino)pyridin-3-yl)-6-azaspiro[2.5]octane-1-carbonyl)piperidin-4-yl)amino)-N-(6-(dimethylamino)pyridazin-3-yl)-6-(methylamino)nicotinamide]
< 50 nM	< 30%	< 30%	CNc1ccc(C(=O)Nc2ccc(N(C)C)nn2)c(NC2CC(C(=O)N3CCC(N4CCN(c5ccc(Nc6ncc7c(C)c(C(C)=O)c(=O)n(C8CCCC8)c7n6)nc5)CC4)C3)C2)n1 (stereo not drawn) [CPD-333, 2-((3-(3-(4-(6-((6-acetyl-8-cyclopentyl-5-methyl-7-oxo-7,8-dihydropyrido[2,3-d]pyrimidin-2-yl)amino)pyridin-3-yl)piperazin-1-yl)pyrrolidine-1-carbonyl)cyclobutyl)amino)-N-(6-(dimethylamino)pyridazin-3-yl)-6-(methylamino)nicotinamide]
< 50 nM	< 30%	< 30%	[2H]C([2H])([2H])Nc1ccc(C(=O)Nc2ccc(N(C)C)nn2)c(NC2CC3(C2)CN(C(=O)CC(C)N2CCN(c4ccc(Nc5ncc6c(C)c(C(C)=O)c(=O)n(C7CCCC7)c6n5)nc4)CC2)C3)n1 (stereo not drawn) [CPD-341, 2-((2-(3-(4-(6-((6-acetyl-8-cyclopentyl-5-methyl-7-oxo-7,8-dihydropyrido[2,3-d]pyrimidin-2-yl)amino)pyridin-3-yl)piperazin-1-yl)butanoyl)-2-azaspiro[3.3]heptan-6-yl)amino)-N-(6-(dimethylamino)pyridazin-3-yl)-6-((methyl-d3)amino)nicotinamide]
< 50 nM	< 30%	< 30%	[2H]C([2H])([2H])Nc1ccc(C(=O)Nc2ccc(N(C)C)nn2)c(NC2CC3(C2)CN(C(=O)CC(N2CCN(c4ccc(Nc5ncc6c(C)c(C(C)=O)c(=O)n(C7CCCC7)c6n5)nc4)CC2)C(F)(F)F)C3)n1 (stereo not drawn) [CPD-342, 2-((2-(3-(4-(6-((6-acetyl-8-cyclopentyl-5-methyl-7-oxo-7,8-dihydropyrido[2,3-d]pyrimidin-2-yl)amino)pyridin-3-yl)piperazin-1-yl)-4,4,4-trifluorobutanoyl)-2-azaspiro[3.3]heptan-6-yl)amino)-N-(6-(dimethylamino)pyridazin-3-yl)-6-((methyl-d3)amino)nicotinamide]
50 to 100 nM	< 30%	< 30%	CC(=O)c1c(C)c2cnc(Nc3ccc(CN4CCN(CC(=O)N5CCC(Nc6nc(NC(C)C)ccc6C(=O)Nc6ccc(N(C)C)nn6)CC5)CC4)cn3)nc2n(C2CCCC2)c1=O [CPD-358, 2-((1-(2-(4-((6-((6-acetyl-8-cyclopentyl-5-methyl-7-oxo-7,8-dihydropyrido[2,3-d]pyrimidin-2-yl)amino)pyridin-3-yl)methyl)piperazin-1-yl)acetyl)piperidin-4-yl)amino)-N-(6-(dimethylamino)pyridazin-3-yl)-6-(isopropylamino)nicotinamide]
< 50 nM	< 30%	< 30%	CC(=O)c1c(C)c2cnc(Nc3ccc(N4CCN(C(C)CC(=O)N5CCC(Nc6nc(NC(C)C)ccc6C(=O)Nc6ccc(N(C)C)nn6)CC5)CC4)cn3)nc2n(C2CCCC2)c1=O (stereo not drawn) [CPD-359, 2-((1-(3-(4-(6-((6-acetyl-8-cyclopentyl-5-methyl-7-oxo-7,8-dihydropyrido[2,3-d]pyrimidin-2-yl)amino)pyridin-3-yl)piperazin-1-yl)butanoyl)piperidin-4-yl)amino)-N-(6-(dimethylamino)pyridazin-3-yl)-6-(isopropylamino)nicotinamide]
< 50 nM	< 30%	< 30%	CC(=O)c1c(C)c2cnc(Nc3ccc(N4CCN(C(CC(=O)N5CC6(CC(Nc7nc(NC(C)C)ccc7C(=O)Nc7ccc(N(C)C)nn7)C6)C5)C(F)(F)F)CC4)cn3)nc2n(C2CCCC2)c1=O (stereo not drawn) [CPD-367, 2-((2-(3-(4-(6-((6-acetyl-8-cyclopentyl-5-methyl-7-oxo-7,8-dihydropyrido[2,3-d]pyrimidin-2-yl)amino)pyridin-3-yl)piperazin-1-yl)-4,4,4-trifluorobutanoyl)-2-azaspiro[3.3]heptan-6-yl)amino)-N-(6-(dimethylamino)pyridazin-3-yl)-6-(isopropylamino)nicotinamide]
< 50 nM	< 30%	< 30%	CC(=O)c1c(C)c2cnc(Nc3ccc(N4CCN(C5CCN(C(=O)[C@H]6CC[C@H](Nc7nc(NC(C)C)ccc7C(=O)Nc7ccc(N(C)C)nn7)CC6)C5)CC4)cn3)nc2n(C2CCCC2)c1=O (stereo partly drawn) [CPD-399, 2-((−4-(3-(4-(6-((6-acetyl-8-cyclopentyl-5-methyl-7-oxo-7,8-dihydropyrido[2,3-d]pyrimidin-2-yl)amino)pyridin-3-yl)piperazin-1-yl)pyrrolidine-1-carbonyl)cyclohexyl)amino)-N-(6-(dimethylamino)pyridazin-3-yl)-6-(isopropylamino)nicotinamide]
50 to 100 nM	< 30%	< 30%	CC(=O)c1c(C)c2cnc(Nc3ccc(N4CCN(C5CCN(C(=O)C6CC(Nc7nc(NC(C)C)ccc7C(=O)Nc7ccc(N(C)C)nn7)C6)C5)CC4)cn3)nc2n(C2CCCC2)c1=O (stereo not drawn) [CPD-402, 2-((3-(3-(4-(6-((6-acetyl-8-cyclopentyl-5-methyl-7-oxo-7,8-dihydropyrido[2,3-d]pyrimidin-2-yl)amino)pyridin-3-yl)piperazin-1-yl)pyrrolidine-1-carbonyl)cyclobutyl)amino)-N-(6-(dimethylamino)pyridazin-3-yl)-6-(isopropylamino)nicotinamide]
< 50 nM	< 30%	< 30%	CC(=O)c1c(C)c2cnc(Nc3ccc(N4CCC5(CC4)CC5C(=O)N4CC5(CC(Nc6nc(NC(C)C)ccc6C(=O)Nc6ccc(N(C)C)nn6)C5)C4)cn3)nc2n(C2CCCC2)c1=O (stereo not drawn) [CPD-411, 2-((2-(6-(6-((6-acetyl-8-cyclopentyl-5-methyl-7-oxo-7,8-dihydropyrido[2,3-d]pyrimidin-2-yl)amino)pyridin-3-yl)-6-azaspiro[2.5]octane-1-carbonyl)-2-azaspiro[3.3]heptan-6-yl)amino)-N-(6-(dimethylamino)pyridazin-3-yl)-6-(isopropylamino)nicotinamide]
